# Measurements taken from PubChem BioAssay AID330 (DTP/NCI, 2004).
# Where “and” joins values, the source holds several entries; their conditions need not be identical. Equal entries are not always repeated. Toxic doses and inconclusive results are not listed.
# Test system: P388 leukemia ip, CD2F1 mice, survival T/C
# Assay: NCI In Vivo Anticancer Drug Screen. Data for tumor model P388 Leukemia (intraperitoneal) in CD2F1 (CDF1) mice
# Conditions: endpoint: median survival time, higher = longer survival
# Summary of the method: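 Mice carrying the transplanted tumor received test compound or vehicle. Survival was recorded in each group, and the value is the treated-group measurement divided by that of the vehicle-treated control group.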
# [1] = dose: 60.0 mg/kg/injection, schedule: Q01DX005 (ip), vehicle: saline with Tween-80
# [2] = dose: 120.0 mg/kg/injection, schedule: Q01DX005 (ip), vehicle: saline with Tween-80
smiles,measurement,setting,value
CCN(c1ccccc1)c1cc2c(cc1[N+](=O)[O-])no[n+]2[O-],T/C,"dose: 1.87 mg/kg/injection, schedule: Q01DX009 (ip), vehicle: saline",101 % of control
same,T/C,"dose: 3.75 mg/kg/injection, schedule: Q01DX009 (ip), vehicle: saline",91 % of control
same,T/C,"dose: 7.5 mg/kg/injection, schedule: Q01DX009 (ip), vehicle: saline",90 % of control and 97 % of control
same,T/C,"dose: 15.0 mg/kg/injection, schedule: Q01DX009 (ip), vehicle: saline",103 % of control and 91 % of control
same,T/C,"dose: 30.0 mg/kg/injection, schedule: Q01DX009 (ip), vehicle: saline",93 % of control
CCN(CC)C(=S)C(C)(C)C,T/C,[1],106 % of control
same,T/C,[2],106 % of control
O=C(O)CCCCCCCCCCCCCCC1C=CCC1 (stereo not given),T/C,"dose: 100.0 mg/kg/injection, schedule: Q01DX001 (ip), vehicle: saline",101 % of control
same,T/C,"dose: 200.0 mg/kg/injection, schedule: Q01DX001 (ip), vehicle: saline",100 % of control
same,T/C,"dose: 400.0 mg/kg/injection, schedule: Q01DX001 (ip), vehicle: saline",98 % of control
O=C(O)c1cc(S(=O)(=O)F)c(Cl)cc1Cl,T/C,[1],119 % of control
same,T/C,[2],104 % of control
same,T/C,"dose: 240.0 mg/kg/injection, schedule: Q01DX005 (ip), vehicle: saline with Tween-80",104 % of control
CC[C@@]1(O)C[C@H](OC2CC(N)C(O)C(C)O2)c2c(O)c3c(c(O)c2[C@H]1C(=O)OC)C(=O)c1cccc(O)c1C3=O (stereo not given in full),T/C,"dose: 1.0 mg/kg/injection, schedule: Q01DX009 (ip), vehicle: water",115 % of control
same,T/C,"dose: 2.0 mg/kg/injection, schedule: Q01DX009 (ip), vehicle: water",116 % of control
same,T/C,"dose: 2.3 mg/kg/injection, schedule: Q01DX009 (ip), vehicle: water",123 % of control
same,T/C,"dose: 12.5 mg/kg/injection, schedule: Q01DX001 (ip), vehicle: water",116 % of control
same,T/C,"dose: 16.0 mg/kg/injection, schedule: Q01DX009 (ip), vehicle: water",86 % of control
same,T/C,"dose: 25.0 mg/kg/injection, schedule: Q01DX001 (ip), vehicle: water",150 % of control
CC1(C)OI(O)c2ccccc21,T/C,"dose: 100.0 mg/kg/injection, schedule: Q04DX002 (ip), vehicle: Klucel (hydroxypropylcellulose) (HPC)",100 % of control
same,T/C,"dose: 200.0 mg/kg/injection, schedule: Q04DX002 (ip), vehicle: Klucel (hydroxypropylcellulose) (HPC)",100 % of control
Nc1nc(Cc2ccccc2)cc(-c2cc(Cc3ccccc3)nc(N)n2)n1,T/C,"dose: 60.0 mg/kg/injection, schedule: Q01DX005 (ip), vehicle: Klucel (hydroxypropylcellulose) (HPC)",90 % of control
same,T/C,"dose: 120.0 mg/kg/injection, schedule: Q01DX005 (ip), vehicle: Klucel (hydroxypropylcellulose) (HPC)",95 % of control
same,T/C,"dose: 240.0 mg/kg/injection, schedule: Q01DX005 (ip), vehicle: Klucel (hydroxypropylcellulose) (HPC)",97 % of control
Oc1cc2c(cc1-c1cc3c(cc1O)OCO3)OCO2,T/C,"dose: 25.0 mg/kg/injection, schedule: Q01DX005 (ip), vehicle: Klucel (hydroxypropylcellulose) (HPC)",100 % of control
same,T/C,"dose: 50.0 mg/kg/injection, schedule: Q01DX005 (ip), vehicle: Klucel (hydroxypropylcellulose) (HPC)",100 % of control
same,T/C,"dose: 100.0 mg/kg/injection, schedule: Q01DX005 (ip), vehicle: Klucel (hydroxypropylcellulose) (HPC)",105 % of control
same,T/C,"dose: 200.0 mg/kg/injection, schedule: Q01DX005 (ip), vehicle: Klucel (hydroxypropylcellulose) (HPC)",100 % of control
Cc1nnc(SCC2=C(C(=O)O)N3C(=O)C(NC(=O)Cn4cnnn4)C3SC2)s1 (stereo not given),T/C,"dose: 25.0 mg/kg/injection, schedule: Q01DX009 (ip), vehicle: saline",112 % of control
same,T/C,"dose: 400.0 mg/kg/injection, schedule: Q01DX009 (ip), vehicle: saline",112 % of control
Nc1nc2[nH]c(=O)cnc2c(=O)[nH]1,T/C,"dose: 12.5 mg/kg/injection, schedule: Q01DX009 (ip), vehicle: saline with Tween-80",107 % of control
same,T/C,"dose: 25.0 mg/kg/injection, schedule: Q01DX009 (ip), vehicle: saline with Tween-80",107 % of control
same,T/C,"dose: 50.0 mg/kg/injection, schedule: Q01DX009 (ip), vehicle: saline with Tween-80",108 % of control
same,T/C,"dose: 50.0 mg/kg/injection, schedule: Q01DX009 (ip), vehicle: suspension in saline",106 % of control
same,T/C,"dose: 100.0 mg/kg/injection, schedule: Q01DX009 (ip), vehicle: suspension in saline",91 % of control
same,T/C,"dose: 200.0 mg/kg/injection, schedule: Q01DX009 (ip), vehicle: suspension in saline",107 % of control
same,T/C,"dose: 300.0 mg/kg/injection, schedule: Q01DX009 (ip), vehicle: saline",91 % of control
CCO/C(C)=C(\C#N)C(Cl)=Nc1ccc(OC)cc1,T/C,"dose: 100.0 mg/kg/injection, schedule: Q04DX002 (ip), vehicle: saline with Tween-80",108 % of control
same,T/C,"dose: 200.0 mg/kg/injection, schedule: Q04DX002 (ip), vehicle: saline with Tween-80",101 % of control
same,T/C,"dose: 400.0 mg/kg/injection, schedule: Q04DX002 (ip), vehicle: saline with Tween-80",100 % of control
